How the values were obtained:
KRas^G12V = target: T1, KRas^G12V (Homo sapiens, UniProt P01116, G12V); experiment: KRas binding assay (TR-FRET tracer displacement), KRas G12V
T1 construct: Biotinylated KRas (corresponding to amino acids 1-169, produced at Accelegan Inc.); biotin (biotinylated); purchased Accelegan Inc

KRas^G12C = target: T2, KRas^G12C (Homo sapiens, UniProt P01116, G12C); experiment: KRas binding assay (TR-FRET tracer displacement), KRas G12C; details: TR-FRET tracer displacement, KRas G12C
T2 construct: Biotinylated KRas (corresponding to amino acids 1-169, produced at Accelegan Inc.); biotin (biotinylated); purchased Accelegan Inc
T2 sequence (P01116 1-169 isoform P01116-2 G12C): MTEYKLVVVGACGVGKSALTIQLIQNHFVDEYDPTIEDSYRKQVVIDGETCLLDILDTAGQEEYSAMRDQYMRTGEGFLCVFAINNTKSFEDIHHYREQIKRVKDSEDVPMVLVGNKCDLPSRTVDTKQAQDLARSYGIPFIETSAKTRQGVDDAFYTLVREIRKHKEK

[1] = tested on: KRas-mediated phosphorylation of ERK in A549 cells; experiment: Inhibition of KRas-mediated phosphorylation of ERK (Cisbio HTRF pERK), A549 cells; format: cell-based; details: Homo sapiens, HTRF pERK
Summary of the method: (§1)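 Compound treatment lasts 3 hrs on 6,000 seeded cells, testing 10 doses from a 10 uM top concentration in 3-fold decrements at 0.8% final DMSO. Trametinib at 0.2 uM defines the Min signal. Detection is HTRF on cold-lysed cell extracts.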

KRas^G12D = target: T3, KRas^G12D (Homo sapiens, UniProt P01116, G12D); experiment: KRas binding assay (TR-FRET tracer displacement), KRas G12D
T3 construct: Biotinylated KRas (corresponding to amino acids 1-169, produced at Accelegan Inc.); biotin (biotinylated); purchased Accelegan Inc
T3 sequence (P01116 1-169 isoform P01116-2 G12D): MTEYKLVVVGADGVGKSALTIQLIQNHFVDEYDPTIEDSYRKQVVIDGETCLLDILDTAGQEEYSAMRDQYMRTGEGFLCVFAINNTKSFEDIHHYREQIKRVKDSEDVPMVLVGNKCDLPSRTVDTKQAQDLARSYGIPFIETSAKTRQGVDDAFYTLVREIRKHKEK

KRas^G12S = target: T4, KRas^G12S (Homo sapiens, UniProt P01116, G12S); experiment: KRas binding assay (TR-FRET tracer displacement), KRas G12S; details: TR-FRET tracer displacement, KRas G12S
T4 construct: Biotinylated KRas (corresponding to amino acids 1-169, produced at Accelegan Inc.); biotin (biotinylated); purchased Accelegan Inc
T4 sequence (P01116 1-169 isoform P01116-2 G12S): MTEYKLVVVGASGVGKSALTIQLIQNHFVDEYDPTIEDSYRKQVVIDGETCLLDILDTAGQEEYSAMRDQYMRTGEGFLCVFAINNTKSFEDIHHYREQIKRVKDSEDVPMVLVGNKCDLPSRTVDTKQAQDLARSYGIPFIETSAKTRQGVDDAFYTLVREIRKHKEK

[2] = tested on: KRas-mediated phosphorylation of ERK in H727 cells; experiment: Inhibition of KRas-mediated phosphorylation of ERK (Cisbio HTRF pERK), H727 cells; format: cell-based; details: Homo sapiens, NCI-H727, H727 cells; HTRF pERK
Summary of the method: (§2)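 Min control wells contained 0.2 uM Trametinib, while test compounds ran as 10 doses (3-fold, top 10 uM; 0.8% DMSO final) on cells for 3 hrs. After 40 mins lysis at 4° C, lysates were probed with HTRF antibodies for 2 hrs at room temperature.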

[3] = tested on: KRas-mediated phosphorylation of ERK in H460 cells; experiment: Inhibition of KRas-mediated phosphorylation of ERK (Cisbio HTRF pERK), H460 cells; format: cell-based; details: Homo sapiens, NCI-H460, HTRF pERK
Summary of the method: as §2

[4] = tested on: KRas-mediated phosphorylation of ERK in PSN1 cells; experiment: Inhibition of KRas-mediated phosphorylation of ERK (Cisbio HTRF pERK), PSN1 cells; format: cell-based; details: Homo sapiens
Summary of the method: (§3)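 Seeding density was 6,000 cells/well; medium RPMI, 10% FBS. Read-out by homogeneous time-resolved fluorescence (pERK) after 4 hours covered at room temperature.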

[5] = tested on: KRas-mediated phosphorylation of ERK in MKN1 cells; experiment: Inhibition of KRas-mediated phosphorylation of ERK (Cisbio HTRF pERK), MKN1 cells; format: cell-based; details: Homo sapiens, MKN-1
Summary of the method: as §3

[6] = tested on: KRas-mediated phosphorylation of ERK in H358 cells; experiment: Inhibition of KRas-mediated phosphorylation of ERK (Cisbio HTRF pERK), H358 cells; format: cell-based; details: Homo sapiens, NCI-H358, HTRF pERK
Summary of the method: as §2

[7] = tested on: KRas-mediated phosphorylation of ERK in HCT116 cells; experiment: Inhibition of KRas-mediated phosphorylation of ERK (Cisbio HTRF pERK), HCT116 cells; format: cell-based; details: Homo sapiens, HCT-116, HTRF pERK
Summary of the method: as §1

[8] = tested on: KRas-mediated phosphorylation of ERK in AsPC-1 cells; experiment: Inhibition of KRas-mediated phosphorylation of ERK (Cisbio HTRF pERK), AsPC-1 cells; format: cell-based; details: Homo sapiens, ASPC1, AsPC-1 cells; HTRF pERK
Summary of the method: as §2

KRas^G12R = target: T5, KRas^G12R (Homo sapiens, UniProt P01116, G12R); experiment: KRas binding assay (TR-FRET tracer displacement), KRas G12R
T5 construct: Biotinylated KRas (corresponding to amino acids 1-169, produced at Accelegan Inc.); biotin (biotinylated); purchased Accelegan Inc
T5 sequence (P01116 1-169 isoform P01116-2 G12R): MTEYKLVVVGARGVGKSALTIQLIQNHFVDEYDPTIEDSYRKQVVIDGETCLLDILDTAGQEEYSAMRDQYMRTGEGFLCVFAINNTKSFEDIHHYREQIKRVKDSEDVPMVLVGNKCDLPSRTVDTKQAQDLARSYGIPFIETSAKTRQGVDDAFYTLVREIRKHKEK

KRas^WT = target: T6, KRas^WT (Homo sapiens, UniProt P01116); experiment: KRas binding assay (TR-FRET tracer displacement), KRas WT; details: TR-FRET tracer displacement, KRas WT
T6 construct: Biotinylated KRas (corresponding to amino acids 1-169, produced at Accelegan Inc.); biotin (biotinylated); purchased Accelegan Inc
T6 sequence (P01116 1-169 isoform P01116-2): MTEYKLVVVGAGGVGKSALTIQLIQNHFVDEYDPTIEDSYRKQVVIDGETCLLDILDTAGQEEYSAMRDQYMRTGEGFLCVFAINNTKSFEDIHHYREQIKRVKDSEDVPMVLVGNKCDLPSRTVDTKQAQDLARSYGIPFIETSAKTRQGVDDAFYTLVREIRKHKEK

T1 sequence (P01116 1-169 isoform P01116-2 G12V): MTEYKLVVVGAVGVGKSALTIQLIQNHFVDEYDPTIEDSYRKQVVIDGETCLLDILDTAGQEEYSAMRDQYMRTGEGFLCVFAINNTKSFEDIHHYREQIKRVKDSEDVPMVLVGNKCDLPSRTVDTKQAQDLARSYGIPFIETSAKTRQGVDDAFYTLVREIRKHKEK

Row | SMILES | IC50 (KRas^G12V) [nM] | IC50 (KRas^G12C) [nM] | IC50 [1] [nM] | IC50 (KRas^G12D) [nM] | IC50 (KRas^G12S) [nM] | IC50 [2] [nM] | IC50 [3] [nM] | IC50 [4] [nM] | IC50 [5] [nM] | IC50 [6] [nM] | IC50 [7] [nM] | IC50 [8] [nM] | IC50 (KRas^G12R) [nM] | IC50 (KRas^WT) [nM]
1 | CCc1c(F)ccc2cc(O)cc(-c3ncc4c(N5CC[C@H]6C(=O)O[C@H]6C5)nc(OC[C@@]56CCCN5C[C@H](F)C6)nc4c3F)c12 [Example 802, 3-(7-(8-ethyl-7-fluoro-3-hydroxynaphthalen-1-yl)-8-fluoro-2-(((2R,7aS)-2-fluorotetrahydro-1H-pyrrolizin-7a(5H)-yl)methoxy)pyrido[4,3-d]pyrimidin-4-yl)-8-oxa-3-azabicyclo[4.2.0]octan-7-one] | 116 | 2 | 12 | 189 | 2 | > 10000 | > 10000 | > 10000 | > 10000 | 32 | > 10000 | > 10000 | 35 | 
2 | CCc1c(F)ccc2cc(O)cc(-c3nc4c5c(nc(OC[C@@]67CCCN6C[C@H](F)C7)nc5c3F)NCCO4)c12 [Example 803, 5-ethyl-6-fluoro-4-(4-fluoro-2-(((2R,7aS)-2-fluorotetrahydro-1H-pyrrolizin-7a(5H)-yl)methoxy)-9,10-dihydro-8H-7-oxa-1,3,6,10-tetraazacyclohepta[de]naphthalen-5-yl)naphthalen-2-ol] | 9 | 11 |  | 14 | 14 |  |  |  |  |  |  |  |  | 20
3 | CCc1c(F)ccc2cc(O)cc(-c3ncc4c(N5C[C@H]6CC[C@@](C(=O)NC)(C5)C6(F)F)nc(OC[C@@]56CCCN5C[C@H](F)C6)nc4c3F)c12 [Example 907, (1S,5R)-3-(7-(8-ethyl-7-fluoro-3-hydroxynaphthalen-1-yl)-8-fluoro-2-(((2R,7aS)-2-fluorotetrahydro-1H-pyrrolizin-7a(5H)-yl)methoxy)pyrido[4,3-d]pyrimidin-4-yl)-8,8-difluoro-N-methyl-3-azabicyclo[3.2.1]octane-1-carboxamide] | 23 |  | 827 | 88 |  | 922 | 590 | > 10000 | 137 | 325 | 1580 | 2040 | 18 | 
4 | C[C@@]1(O)CCCN(c2nc(OC[C@@]34CCCN3C[C@H](F)C4)nc3c(F)c(-c4ccc(F)c5sc(N)c(C#N)c45)ncc23)C1 [Example 912, 2-amino-7-fluoro-4-(8-fluoro-2-(((2R,7aS)-2-fluorotetrahydro-1H-pyrrolizin-7a(5H)-yl)methoxy)-4-((R)-3-hydroxy-3-methylpiperidin-1-yl)pyrido[4,3-d]pyrimidin-7-yl)benzo[b]thiophene-3-carbonitrile] | 69 |  | 2820 | 45 |  | 3310 | 2050 | > 10000 | 504 | 800 | 1830 | 2310 | 85 | 
5 | CCc1c(F)ccc2cc(O)cc(-c3ncc4c(N5CC6CCC(C5)S6)nc(OC[C@@]56CCCN5C[C@H](F)C6)nc4c3F)c12 [Example 922, 4-(4-(8-thia-3-azabicyclo[3.2.1]octan-3-yl)-8-fluoro-2-(((2R,7aS)-2-fluorotetrahydro-1H-pyrrolizin-7a(5H)-yl)methoxy)pyrido[4,3-d]pyrimidin-7-yl)-5-ethyl-6-fluoronaphthalen-2-ol] | 13 | 18 |  | 74 | 9 | 576 |  |  |  |  |  | 1380 |  | 21
6 | C#Cc1c(F)ccc2cc(O)cc(-c3ncc4c(N5CCCC6(CCO6)C5)nc(OC[C@@]56CCCN5C[C@H](F)C6)nc4c3F)c12 (stereo partly drawn) [Example 935, 5-ethynyl-6-fluoro-4-(8-fluoro-2-(((2R,7aS)-2-fluorotetrahydro-1H-pyrrolizin-7a(5H)-yl)methoxy)-4-(1-oxa-6-azaspiro[3.5]nonan-6-yl)pyrido[4,3-d]pyrimidin-7-yl)naphthalen-2-ol] | 4 | 7 |  | 4 | 5 | 73 |  |  |  |  |  | 70 |  | 7

These reach a lower IC50 (KRas^G12V). Values come first.

Row | IC50 (KRas^G12V) [nM] | IC50 (KRas^G12C) [nM] | IC50 [1] [nM] | IC50 (KRas^G12D) [nM] | IC50 (KRas^G12S) [nM] | IC50 [2] [nM] | IC50 [3] [nM] | IC50 [4] [nM] | IC50 [5] [nM] | IC50 [6] [nM] | IC50 [7] [nM] | IC50 [8] [nM] | IC50 (KRas^G12R) [nM] | IC50 (KRas^WT) [nM] | SMILES
7 | 3 |  | 226 | 11 |  | 527 | 108 | > 10000 | 17 | 114 | 231 | 526 | 10 |  | CCc1c(F)ccc2cc(O)cc(-c3ncc4c(N5CC6CCC(CC(=O)N(C)C)(C6)C5)nc(OC[C@@]56CCCN5C[C@H](F)C6)nc4c3F)c12 (stereo partly drawn) [Example 911, 2-(3-(7-(8-ethyl-7-fluoro-3-hydroxynaphthalen-1-yl)-8-fluoro-2-(((2R,7aS)-2-fluorotetrahydro-1H-pyrrolizin-7a(5H)-yl)methoxy)pyrido[4,3-d]pyrimidin-4-yl)-3-azabicyclo[3.2.1]octan-1-yl)-N,N-dimethylacetamide]
8 | < 2 |  | 51 | < 2 |  | 74 | 36 | 1550 | 14 | 9 | 60 | 94 | < 2 |  | CCc1c(F)ccc2cc3[nH]ncc3c(-c3ncc4c(N5CCC[C@]6(C5)NC(=O)NC6=O)nc(OC[C@@]56CCCN5C[C@H](F)C6)nc4c3F)c12 [Example 915, (5R)-7-(7-(5-ethyl-6-fluoro-1H-benzo[f]indazol-4-yl)-8-fluoro-2-(((2R,7aS)-2-fluorotetrahydro-1H-pyrrolizin-7a(5H)-yl)methoxy)pyrido[4,3-d]pyrimidin-4-yl)-1,3,7-triazaspiro[4.5]decane-2,4-dione]
9 | < 2 | < 2 | 3 | < 2 | < 2 | 4 |  |  |  | 1 |  | 13 |  | < 2 | CCc1c(F)ccc2cc(O)cc(-c3ncc4c(N5C[C@@H]6C[C@H](C5)[C@H](O)C6)nc(OCC56CCCN5C/C(=C/F)C6)nc4c3F)c12 (stereo partly drawn) [Example 930, (1R,5R,6R)-3-(7-(8-ethyl-7-fluoro-3-hydroxynaphthalen-1-yl)-8-fluoro-2-(((E)-2-(fluoromethylene)tetrahydro-1H-pyrrolizin-7a(5H)-yl)methoxy)pyrido[4,3-d]pyrimidin-4-yl)-3-azabicyclo[3.2.1]octan-6-ol]
10 | < 2 | < 2 | 7 | < 2 | < 2 | 6 |  |  | 0.2 | 1 |  | 11 |  | < 2 | C=C1CN2CCCC2(COc2nc(N3CCCC4(CC(O)C4)C3)c3cnc(-c4cc(O)cc5ccc(F)c(CC)c45)c(F)c3n2)C1 (stereo not drawn) [Example 934, 6-(7-(8-ethyl-7-fluoro-3-hydroxynaphthalen-1-yl)-8-fluoro-2-((2-methylenetetrahydro-1H-pyrrolizin-7a(5H)-yl)methoxy)pyrido[4,3-d]pyrimidin-4-yl)-6-azaspiro[3.5]nonan-2-ol]
11 | < 2 | < 2 | 27 | < 2 | < 2 | 50 |  |  | 0.4 | 4 |  | 32 |  | < 2 | C=C1CN2CCCC2(COc2nc(N3CCCC4(CC(=O)N4)C3)c3cnc(-c4cc(O)cc5ccc(F)c(CC)c45)c(F)c3n2)C1 (stereo not drawn) [Example 943, 6-(7-(8-ethyl-7-fluoro-3-hydroxynaphthalen-1-yl)-8-fluoro-2-((2-methylenetetrahydro-1H-pyrrolizin-7a(5H)-yl)methoxy)pyrido[4,3-d]pyrimidin-4-yl)-1,6-diazaspiro[3.5]nonan-2-one]

— US20260015350A1, “AZAQUINAZOLINE PAN-KRAS INHIBITORS” (Mirati Therapeutics, Inc., priority 2022, published 2026)
